Marks after values point to notes of the source that are not given here.
Legend:
[1] = molecular target: T1, CYP 11β2 beta hydroxylase (Homo sapiens, UniProt P19099); test: PKPD modeling of SAD study data: time above IC50; assay type: in vivo; settings: aldosterone
T1 construct: estimated based on PKPD modeling of data from the SAD study; from tissue; host or cells: adrenal cortex of human study subjects (in vivo)
T1 sequence (P19099 25-503): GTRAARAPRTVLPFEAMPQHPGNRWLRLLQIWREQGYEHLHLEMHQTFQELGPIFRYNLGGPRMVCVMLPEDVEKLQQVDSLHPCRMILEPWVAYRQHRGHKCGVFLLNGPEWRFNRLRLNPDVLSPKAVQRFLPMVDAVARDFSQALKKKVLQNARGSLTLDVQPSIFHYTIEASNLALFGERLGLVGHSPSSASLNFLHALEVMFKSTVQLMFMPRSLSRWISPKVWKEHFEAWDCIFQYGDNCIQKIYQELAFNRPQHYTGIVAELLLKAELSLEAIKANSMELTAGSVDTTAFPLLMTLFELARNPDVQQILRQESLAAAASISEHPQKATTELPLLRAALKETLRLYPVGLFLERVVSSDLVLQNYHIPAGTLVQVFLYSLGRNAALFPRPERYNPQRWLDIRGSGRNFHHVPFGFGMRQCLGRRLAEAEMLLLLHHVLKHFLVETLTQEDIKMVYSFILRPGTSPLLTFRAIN
Protocol: A randomized, double-blinded, placebo-controlled study was conducted in which 116 patients were randomized and 87 received Compound A HBr.
A single ascending dose (SAD) study was conducted with the following dosing amounts tested: • (a) 5 mg • (b) 10 mg • (c) 20 mg • (d) 50 mg • (e) 100 mg • (f) 200 mg • (g) 400 mg • (h) 800 mg.
The IC50 of inhibition of CYP […] by Compound A HBr and the time above IC50 for each dosing amount were estimated based on PKPD modeling of data from the SAD study.

[2] = Example 4 dose-ranging study: safety (adverse events, serum potassium, eGFR); assay type: in vivo, human
Protocol: Subjects orally administered the assigned study drug (Compound A HBr or placebo) according to the assigned dosing regimen for 8 weeks beginning on Study Day 1. All subjects in Part 1 (regardless of dosing group) received BID dosing to preserve the integrity of the blind; active drug is administered as the morning dose for all QD dose groups. Subjects returned to the research facility or were seen by the clinical investigator or approved home health care professional at the end of Study Weeks 1, 2, 3, 4, 5, 6, 7, and 8 (±2 days) for protocol-defined efficacy and safety assessments and procedures, assessment of adverse events (AEs), and confirmation of compliance with study drug usage. Subjects also completed a telephone visit and blood pressure (BP) check at home approximately 3 days post last dose of study drug. Subjects attended up to 14 full clinic visits, including a pre-Screening visit, a Screening/start of Placebo Run-in visit, a second visit during Placebo Run-in, a clinic visit to initiate the ABPM procedure, a Randomization visit, 8 weekly visits during double-blind treatment, and an end-of-study visit scheduled 4 weeks after the last study treatment for final efficacy and safety assessments.

[3] = test system: 46 targets in receptor binding and enzyme inhibition studies; test: Pan-receptor screening
From the text: Compound A, at a concentration of 10 μmol/L, was screened against 46 targets in receptor binding and enzyme inhibition studies to determine if Compound A interacted with any off-target enzymes or receptors.

[4] = molecular target: T2, hERG channel (Homo sapiens, UniProt Q12809); test: Effects on hERG current, whole-cell patch-clamp in HEK293 cells; assay type: cell-based
T2 construct: expressed in transfected cells; host or cells: HEK293 cells stably expressing hERG
T2 sequence (Q12809 whole entry): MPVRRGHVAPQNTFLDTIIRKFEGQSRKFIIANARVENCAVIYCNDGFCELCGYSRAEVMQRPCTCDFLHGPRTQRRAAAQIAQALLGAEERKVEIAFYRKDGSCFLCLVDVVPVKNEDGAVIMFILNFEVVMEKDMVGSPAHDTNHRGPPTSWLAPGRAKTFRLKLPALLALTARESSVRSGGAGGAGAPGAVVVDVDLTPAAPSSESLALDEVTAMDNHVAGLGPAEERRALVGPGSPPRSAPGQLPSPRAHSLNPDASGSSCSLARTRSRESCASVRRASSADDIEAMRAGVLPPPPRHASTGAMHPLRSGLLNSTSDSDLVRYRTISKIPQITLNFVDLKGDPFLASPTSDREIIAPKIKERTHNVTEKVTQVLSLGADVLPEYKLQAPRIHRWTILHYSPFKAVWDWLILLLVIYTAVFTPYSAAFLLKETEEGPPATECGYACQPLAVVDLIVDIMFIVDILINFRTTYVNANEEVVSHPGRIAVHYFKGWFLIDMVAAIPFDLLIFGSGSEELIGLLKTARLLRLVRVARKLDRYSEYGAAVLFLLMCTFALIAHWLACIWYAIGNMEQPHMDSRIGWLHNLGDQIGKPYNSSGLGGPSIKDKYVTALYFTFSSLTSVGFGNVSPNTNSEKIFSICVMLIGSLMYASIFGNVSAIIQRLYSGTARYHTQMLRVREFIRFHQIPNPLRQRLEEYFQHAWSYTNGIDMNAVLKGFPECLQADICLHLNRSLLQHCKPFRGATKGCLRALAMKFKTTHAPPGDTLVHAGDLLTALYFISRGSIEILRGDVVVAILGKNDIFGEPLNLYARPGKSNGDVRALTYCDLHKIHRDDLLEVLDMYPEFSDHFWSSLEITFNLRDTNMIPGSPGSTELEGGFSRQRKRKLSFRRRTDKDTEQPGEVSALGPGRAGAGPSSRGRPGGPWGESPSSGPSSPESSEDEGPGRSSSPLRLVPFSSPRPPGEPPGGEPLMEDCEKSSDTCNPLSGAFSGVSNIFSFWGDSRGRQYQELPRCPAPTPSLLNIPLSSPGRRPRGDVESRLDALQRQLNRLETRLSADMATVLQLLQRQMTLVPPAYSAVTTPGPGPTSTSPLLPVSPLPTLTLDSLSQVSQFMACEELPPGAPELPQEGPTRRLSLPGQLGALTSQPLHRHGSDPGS
Protocol: The effects of Compound A on the human ether-à-go-go-related gene (hERG) current were evaluated using the whole-cell patch-clamp method in human embryonic kidney (HEK293) cells stably expressing the hERG channel. Cells were treated with Compound A at concentrations of 1, 3, 10, and 30 μmol/L, positive control (E-4031) at 0.1 μmol/L, or vehicle (0.3 v/v % dimethyl sulfoxide) for 10 minutes.

[5] = pooled (Part 1 and Part 2) 100 mg QD safety set (n=60)

CC(=O)N[C@H]1CC[C@H](NC(=O)CN2CCN(c3nncc(-c4ccc(C)cc4)n3)CC2)CC1 [Compound A HBr]
% 24 hr above IC50 ([1]; 12.5 mg BID): 25% | % 24 hr above IC50 ([1]; 12.5 mg QD): 8% | % 24 hr above IC50 ([1]; 25 mg BID): 52% | % 24 hr above IC50 ([1]; 50 mg QD): 38% | % 24 hr above IC50 ([1]; 100 mg QD): 56% | Study drug discontinuation: Hyperkalemia, subjects (%) ([2]; 100 mg QD Pooled, N 60): 2 (3.3%) | Study drug discontinuation: Hyponatremia, subjects (%) ([2]; 100 mg QD Pooled, N 60): 1 (1.7%) | Study drug discontinuation: Hypotension, subjects (%) ([2]; 100 mg QD Pooled, N 60): 2 (3.3%) | Study drug discontinuation: Other possibly related, subjects (%) ([2]; 100 mg QD Pooled, N 60): 1 (1.7%) | Study drug discontinuation: Other unrelated, subjects (%) ([2]; 100 mg QD Pooled, N 60): 4 (6.7%) | Individuals with verified or multiple increased Serum K+ 5.2-5.5 mMol/L, number (%) ([2]; 100 mg QD, Part 1): 5 (18.5%) | Individuals with verified or multiple increased Serum K+ 5.6-6.0 mMol/L, number (%) ([2]; 100 mg QD, Part 1): 3 (10.7%) | Individuals with verified or multiple increased Serum K+ 6.1-6.5 mMol/L, number (%) ([2]; 100 mg QD, Part 1): 0 | Individuals with increased Serum K+ >6.5 mMol/L, number ([2]; 100 mg QD, Part 1, isolated incident not verified by repeat measurement): 1* | Individuals with verified or multiple increased Serum K+ 5.2-5.5 mMol/L, number (%) ([2]; 100 mg QD, Part 2): 1 (4%) | Individuals with verified or multiple increased Serum K+ 5.6-6.0 mMol/L, number (%) ([2]; 100 mg QD, Part 2): 0 | Individuals with verified or multiple increased Serum K+ 6.1-6.5 mMol/L, number (%) ([2]; 100 mg QD, Part 2): 0 | Individuals with verified or multiple increased Serum K+ >6.5 mMol/L, number ([2]; 100 mg QD, Part 2): 0 | Individuals with verified or multiple increased Serum K+ 5.2-5.5 mMol/L, number (%) ([2]; 100 mg QD, Pooled): 6 (10.3%) | Individuals with verified or multiple increased Serum K+ 5.6-6.0 mMol/L, number (%) ([2]; 100 mg QD, Pooled): 3 (5.2%) | Individuals with verified or multiple increased Serum K+ 6.1-6.5 mMol/L, number (%) ([2]; 100 mg QD, Pooled): 0 | Individuals with verified or multiple increased Serum K+ >6.5 mMol/L, number ([2]; 100 mg QD, Pooled): 0 | Study drug discontinuation: Hyperkalemia, subjects (%) ([2]; Part 1 100 mg QD, N 29): 2 (6.9%) | Study drug discontinuation: Hyponatremia, subjects (%) ([2]; Part 1 100 mg QD, N 29): 0 | Study drug discontinuation: Hypotension, subjects (%) ([2]; Part 1 100 mg QD, N 29): 1 (3.4%) | Study drug discontinuation: Other possibly related, subjects (%) ([2]; Part 1 100 mg QD, N 29): 1 (3.4%) | Study drug discontinuation: Other unrelated, subjects (%) ([2]; Part 1 100 mg QD, N 29): 3 (6.0%) | Change in group mean serum potassium (K+), Mean ([2]; Part 1, N 26 (dose not given)): +0.50 mMol/L | Study drug discontinuation: Hyperkalemia, subjects (%) ([2]; Part 1 All active, N 159): 6 (3.8%) | Study drug discontinuation: Hyponatremia, subjects (%) ([2]; Part 1 All active, N 159): 0 | Study drug discontinuation: Hypotension, subjects (%) ([2]; Part 1 All active, N 159): 2 (1.2%) | Study drug discontinuation: Other possibly related, subjects (%) ([2]; Part 1 All active, N 159): 1 (0.6%) | Study drug discontinuation: Other unrelated, subjects (%) ([2]; Part 1 All active, N 159): 11 (6.9%) | Study drug discontinuation: Hyperkalemia, subjects (%) ([2]; Part 2 100 mg QD, N 31): 0 | Study drug discontinuation: Hyponatremia, subjects (%) ([2]; Part 2 100 mg QD, N 31): 1 (3.4%) | Study drug discontinuation: Hypotension, subjects (%) ([2]; Part 2 100 mg QD, N 31): 1 (2.8%) | Study drug discontinuation: Other possibly related, subjects (%) ([2]; Part 2 100 mg QD, N 31): 0 | Study drug discontinuation: Other unrelated, subjects (%) ([2]; Part 2 100 mg QD, N 31): 1 (2.8%) | Change in group mean serum potassium (K+), Mean ([2]; Part 2, N 31 (dose not given)): +0.23 mMol/L | Change in group mean serum potassium (K+), Mean ([2]; Pooled, N 57 (dose not given)): +0.35 mMol/L | Study drug discontinuation: Hyperkalemia, subjects (%) ([2]; Total active, N 190): 6 (3.2%) | Study drug discontinuation: Hyponatremia, subjects (%) ([2]; Total active, N 190): 1 (0.5%) | Study drug discontinuation: Hypotension, subjects (%) ([2]; Total active, N 190): 3 (1.6%) | Study drug discontinuation: Other possibly related, subjects (%) ([2]; Total active, N 190): 1 (0.5%) | Study drug discontinuation: Other unrelated, subjects (%) ([2]; Total active, N 190): 12 (6.3%) | change in eGFR ([2]; dosing cohorts): dose-dependent and reversible reduction in eGFR | effects on serum cortisol [2, 5]: no effects on serum cortisol | episodes of hyperkalemia [2, 5]: few episodes of mild or moderate hyperkalemia and no episodes of severe hyperkalemia | serious adverse events (SAEs) related to the study medication ([2]; whole trial): No serious adverse events (SAEs) related to the study medication

CC(=O)N[C@H]1CC[C@H](NC(=O)CN2CCN(c3nncc(-c4ccc(C)cc4)n3)CC2)CC1 [Compound A]
inhibition of 46 primary molecular target receptors or enzymes ([3]; 10 μmol/L): did not substantially inhibit | IC50 ([3]; any of 46 targets, read-out: IC50 for off-target receptors or enzymes): > 10 µM | IC50 [4]: > 30 µM | inhibition at 10 min, 30 μmol/L ([4]; human, HEK293 cells stably expressing the hERG channel, 30 μmol/L): 27%
